According to the CheMixHub viscosity set:

Experiment: xn = mol fraction of the nth substance listed

CC(C)[N+](=O)[O-] + Cc1ccc(C)cc1
293.15 K, 101.33 kPa
Details | viscosity [mPa·s]
x1 = 0.1052 | 0.64
x1 = 0.2079 | 0.636
x1 = 0.2945 | 0.638
x1 = 0.3973 | 0.644
x1 = 0.4976 | 0.651
x1 = 0.6039 | 0.664
x1 = 0.7089 | 0.678
x1 = 0.8008 | 0.699
x1 = 0.8925 | 0.727

Ic1ccccc1 + c1ccccc1
viscosity [mPa·s], 101 kPa
Details | 298.15 K | 308.15 K | 318.15 K | 323.15 K
x1 = 0.0668 | 0.646 | 0.565 | 0.499 | 0.469
x1 = 0.0896 | 0.66 | 0.578 | 0.512 | 0.478
x1 = 0.8 | 1.274 | – | – | 0.917

Brc1ccccc1 + CCCCCCCCCCCCCC
viscosity [mPa·s], 101 kPa
Details | x2 = 0.1001 | x2 = 0.2007 | x2 = 0.3005 | x2 = 0.3996 | x2 = 0.4985 | x2 = 0.5998 | x2 = 0.6987 | x2 = 0.8012 | x2 = 0.9011
298.15 K | 1.117 | 1.185 | 1.287 | 1.389 | 1.49 | 1.592 | 1.694 | 1.796 | 1.897
303.15 K | 1.042 | 1.13 | 1.218 | 1.306 | 1.394 | 1.482 | 1.57 | 1.658 | 1.746
308.15 K | 0.985 | 1.06 | 1.137 | 1.213 | 1.289 | 1.365 | 1.441 | 1.517 | 1.593

[Br-].[NH4+] + O
298.15 K, 101 kPa
Details | viscosity [mPa·s]
x1 = 0.0089 | 0.8738
x1 = 0.0177 | 0.8563
x1 = 0.0348 | 0.8265

Brc1ccccc1 + Cc1ccccc1
101 kPa
Details | viscosity [mPa·s]
293.15 K, x2 = 0.2 | 1.001
293.15 K, x2 = 0.4 | 0.885
293.15 K, x2 = 0.6 | 0.778
293.15 K, x2 = 0.8 | 0.677
298.15 K, x1 = 0.129 | 0.613
298.15 K, x1 = 0.267 | 0.672
298.15 K, x1 = 0.379 | 0.72
298.15 K, x1 = 0.505 | 0.786
298.15 K, x1 = 0.629 | 0.851
298.15 K, x1 = 0.736 | 0.91
298.15 K, x1 = 0.853 | 0.981
298.15 K, x1 = 0.882 | 0.996
298.15 K, x2 = 0.53 | 0.75
298.15 K, x2 = 0.623 | 0.7
298.15 K, x2 = 0.72 | 0.658
298.15 K, x2 = 0.869 | 0.603
303.15 K, x1 = 0.101 | 0.581
303.15 K, x1 = 0.129 | 0.574
303.15 K, x1 = 0.202 | 0.635
303.15 K, x1 = 0.267 | 0.626
303.15 K, x1 = 0.303 | 0.689
303.15 K, x1 = 0.379 | 0.674
303.15 K, x1 = 0.403 | 0.74
303.15 K, x1 = 0.503 | 0.788
303.15 K, x1 = 0.505 | 0.729
303.15 K, x1 = 0.603 | 0.831
303.15 K, x1 = 0.629 | 0.792
303.15 K, x1 = 0.703 | 0.877
303.15 K, x1 = 0.736 | 0.857
303.15 K, x1 = 0.802 | 0.918
303.15 K, x1 = 0.853 | 0.92
303.15 K, x1 = 0.882 | 0.938
303.15 K, x1 = 0.901 | 0.957
313.15 K, x2 = 0.2 | 0.786
313.15 K, x2 = 0.4 | 0.697
313.15 K, x2 = 0.6 | 0.614
313.15 K, x2 = 0.8 | 0.537

Brc1ccccc1 + CCC(C)=O
303.15 K, 101 kPa
Details | viscosity [mPa·s]
x2 = 0.1487 | 0.899
x2 = 0.2073 | 0.858
x2 = 0.3888 | 0.74
x2 = 0.5263 | 0.656
x2 = 0.7046 | 0.556
x2 = 0.8307 | 0.486

NCC(=O)[O-].[Na+] + O
viscosity [mPa·s], 101 kPa
Details | x1 = 0.01 | x1 = 0.0194 | x1 = 0.0289 | x1 = 0.0371 | x1 = 0.048
298.15 K | 1.124 | 1.41 | 1.747 | 2.15 | 2.82
308.15 K | 0.904 | 1.106 | 1.369 | 1.662 | 2.13
323.15 K | 0.677 | 0.818 | 0.993 | 1.183 | 1.479

COc1ccccc1O + CC(C)=O
303.15 K, 101 kPa
Details | viscosity [mPa·s]
x2 = 0.1 | 3.67
x2 = 0.2 | 2.95
x2 = 0.3 | 2.35
x2 = 0.4 | 1.82
x2 = 0.5 | 1.26
x2 = 0.6 | 1.03
x2 = 0.7 | 0.755
x2 = 0.8 | 0.573
x2 = 0.9 | 0.44

C1COCCO1 + C1CCCCC1
viscosity [mPa·s], 101 kPa
Details | 298.15 K | 303.15 K | 308.15 K | 313.15 K | 318.15 K
x1 = 0.1001 | – | 0.793 | – | – | –
x1 = 0.2073 | – | 0.783 | – | – | –
x1 = 0.3007 | – | 0.785 | – | – | –
x1 = 0.4018 | – | 0.787 | – | – | –
x1 = 0.5018 | – | 0.815 | – | – | –
x1 = 0.5983 | – | 0.841 | – | – | –
x1 = 0.6997 | – | 0.882 | – | – | –
x1 = 0.7992 | – | 0.934 | – | – | –
x1 = 0.8901 | – | 1 | – | – | –
x2 = 0.0864 | 1.083 | 1.009 | 0.936 | 0.869 | 0.808
x2 = 0.2096 | 0.992 | 0.917 | 0.851 | 0.792 | 0.738
x2 = 0.286 | 0.943 | 0.876 | 0.813 | 0.756 | 0.702
x2 = 0.391 | 0.887 | 0.82 | 0.763 | 0.709 | 0.661
x2 = 0.535 | 0.848 | 0.785 | 0.73 | 0.676 | 0.632
x2 = 0.6125 | 0.831 | 0.772 | 0.715 | 0.665 | 0.621
x2 = 0.685 | 0.821 | 0.766 | 0.711 | 0.66 | 0.617
x2 = 0.773 | 0.824 | 0.763 | 0.708 | 0.66 | 0.614
x2 = 0.8223 | 0.828 | 0.768 | 0.714 | 0.663 | 0.617
x2 = 0.9303 | 0.847 | 0.781 | 0.724 | 0.673 | 0.627
